Data published in paper PMC6337261, “Short Peptides with Uncleavable Peptide Bond Mimetics as Photoactivatable Caspase-3 Inhibitors” (Molecules, 2019).

Experiments:
caspase-3 [1] = assay: Competitive ABPP with bisulfite aldehyde quenching; type: biochemical; conditions: 10 μM, irradiated 10 min, reacted with 10 mM NaHSO3 for 20 min, then 30 min with caspase-3, fluorescent ABP read-out
From the text: The presence of a ψ(CH2NH) peptide with benzophenone or UV irradiation alone was not sufficient for inhibition, but all needed to be present to block the caspase-3 active site (Figure 3G,H). We hypothesized that the active species is a peptide aldehyde, formed by oxidation of the ψ(CH2NH) moiety (see also discussion in Section 3). To support this hypothesis, we performed an experiment in which this aldehyde was trapped by sodium bisulfite, forming a sodium bisulfite adduct.
Compounds were incubated with or without irradiation (10 min) in PBS with or without 10 mM NaHSO3 and incubated for another 20 min before addition to caspase-3. After 30 min, ABP 13 was added (final concentration 1 μM) to label residual caspase activity. The samples were incubated for 30 min at room temperature, after which 1/3rd volume of 4× Laemmli buffer was added. Samples were processed in the same way as under Section 4.4.1.
Figure 3 Non-covalent inhibition of caspase-3 by compounds 9 and 10. (A) Fluorescent labeling of caspase-3 by ψ(CH2NH) peptides 9–10 and triazolo peptides 11–12. […] (B) Deconvoluted ESI-MS of caspase-3. (C) Deconvoluted ESI-MS of caspase-3 after incubation with covalent activity-based probe (ABP) 13. Note that the active site, located on the large subunit, is modified. (D) Deconvoluted ESI-MS of caspase-3 after irradiation in the presence of benzophenone ψ(CH2NH) 10a, not resulting in covalent modification. […] (F) Structures of ψ(CH2NH) peptides 14 and 15 without photocrosslinker. (G) UV irradiation of ψ(CH2NH) peptides 14 and 15 in the presence of benzophenone leads to inhibition of caspase-3, as monitored by competitive ABPP. […] Ac-DEVD-aldehyde (100 nM) was used as a control compound, whereas 9a and 10a (10 μM) were irradiated for 10 min and reacted with sodium bisulfite for an additional 20 min before 30 min incubation with caspase-3 and read-out with a fluorescent caspase ABP.

caspase-3 [2] = assay: Fluorogenic substrate (Ac-DEVD-AMC) cleavage assay; type: biochemical; conditions: 10 μM compound, 2 nM caspase-3, 50 μM Ac-DEVD-AMC, HEPES pH 7.4 with 10 mM DTT, n = 2
Method: To check whether our probes function as inhibitors, competitive ABPP [28] was performed. Recombinant caspase-3 was incubated with probes 9a–10c, 11a and 12a with or without irradiation at 365 nm, followed by labeling of residually active caspase-3 with the fluorescent, caspase-directed activity-based probe (ABP) SV149, a tetramethylrhodamine derivative of KMB-01 [29]. Caspase activity itself was not affected by UV irradiation, as shown by bands of equal intensity with and without UV light (Figure 2A). […] To confirm inhibition, we also performed substrate cleavage assays using the fluorogenic aminomethyl coumarin substrate Ac-DEVD-AMC. […] Inhibition of active caspases could also be achieved in an apoptotic cell lysate (Figure 2D).
Purified caspase-3 (2 nM) was pre-activated by incubating in caspase reaction buffer (20 mm HEPES pH 7.4, 100 mM NaCl, 1 mM EDTA, 10% sucrose (w/v), 0.1% CHAPS (w/v), 10 mM DTT) for 15 min at 37 °C. Inhibitors 9a, 10a, and DMSO (control) were incubated with the caspase-3 at 10 μM final concentration. One set was irradiated with a handheld UV lamp at 365 nm for 30 min at room temperature whereas the control set was not irradiated. After 30 min, 99 μL of the sample was added to 1 μL of Ac-DEVD-AMC fluorogenic substrate (5 mM in dmso; 50 μM final concentration) in a black 96 well plate. The fluorescence intensity was read using an iD3 SpectraMax platereader (Molecular Devices; excitation wavelength: 340 nm; emission wavelength: 475 nm). The experiment was performed in duplicate. Activity was determined as the slope from the linear part of the progress curve by using GraphPad Prism.
Figure 2 Inhibition of caspase-3. (A) Competitive activity-based protein profiling (ABPP) experiments using ψ(CH2NH) or triazolo peptide derivatives 9–12 with or without irradiation. Compounds 9a–12a were used at 10 μM final concentration, 9b, 9c, 10b and 10c at 100 μM. Inh = caspase inhibitor biotin-DEVD-AOMK, used at 100 nM concentration. (B) Representative progress curves of fluorescence produced by Ac-DEVD-AMC (50 μM) cleavage by caspase-3, irradiated with or without 10 μM of the indicated compounds. (C) Bar graph of residual caspase-3 activity of replicate experiments (n = 2) of those in (B). (D) Inhibition of executioner’s caspase-3 and -7 in lysates of HEK293 cells, treated with cytochrome c/dATP to induce apoptosis.

[3] = LC-MS analysis of probes before and after UV irradiation; type: physicochemical; conditions: irradiation at 365 nm, gradient 10% to 95% acetonitrile with 0.1% formic acid
Method: Compounds were irradiated with UV light of 365 nm for 30 min and after removal of the light source added to caspase-3. Residual caspase activity was measured by using a fluorescent caspase ABP as in our previous experiments above.
Although this points towards a cyclization rather than reaction with a water molecule, it is not clear whether it leads to a potent caspase inhibitor. […] Therefore, cyclization seemed improbable, as this would most likely lead to a shift in retention time. We hypothesized that irradiation could potentially lead to oxidation of a very small amount of the ψ(CH2NH) moiety with benzophenone as a photosensitizer, resulting in minute quantities of aldehydes that were not detected on LC-MS, but were sufficient for caspase-3 inhibition. Oxidation of secondary amines under influence of benzophenone has been reported before. […] Note that triazoles cannot undergo this transformation, further explaining their inactivity. The oxidation hypothesis was supported by an experiment in which ψ(CH2NH) peptides 14 and 15, not containing a benzophenone, were irradiated in the presence of 1 eq of spiked-in benzophenone (Figure 3G–I).
All materials were purchased from Sigma Aldrich GmbH (GmbH, Darmstadt, Germany), Carl Roth GmbH + Co. KG (Karlsruhe, Germany), Thermo Fischer Scientific Inc. (Dreieich, Germany), Rapp Polymere GmbH (Tübingen, Germany), Applichem GmbH (Darmstadt, Germany), VWR International GmbH (Darmstadt, Germany), Merck KGaA (Darmstadt, Germany), CreoSalus Inc. (Louisville, KY, USA), and Iris Biotech GmbH (Marktredwitz, Germany) and were used as received, unless otherwise noted. TLC was performed on pre-coated ALUGRAM SIL G plates with detection by a handheld UV lamp (254 nm) and subsequent staining with potassium permanganate, p-anisaldehyde, ninhydrin or cerium ammonium molybdate. LC-MS analysis was performed on a Thermo LCQ Fleet HPLC-MS/MS system using a gradient of 10% to 95% acetonitrile containing 0.1% formic acid. NMR spectra were recorded on a Bruker Avance DRX 400 spectrometer with tetramethylsilane as internal standard. High resolution ESI-FTMS was performed on a Thermo Scientific LTQ Orbitrap Velos Pro mass spectrometer.

Inhibition of caspase-3 by irradiated sample exposed to sodium bisulfite (caspase-3 [1]): lose their inhibitory capacity | Inhibition of Ac-DEVD-AMC cleavage by caspase-3 (caspase-3 [2]; not irradiated): little to no inhibition | Change of probe upon UV irradiation (LC-MS before and after) [3]: did not show obvious changes
Substance: Hexynoyl-Asp-Glu-Val-Aspψ(CH2NH)-Ala-Bpa-NH2 [10a]
Inhibition of Ac-DEVD-AMC cleavage by caspase-3 (caspase-3 [2]; irradiated at 365 nm for 30 min at room temperature): complete blockage of substrate processing
